Measured values reported in paper PMC12670405, “Second-Generation AURKA-Targeting PROTACs: Structural Optimization toward in Vivo Degradation in Neuroblastoma” (Journal of Medicinal Chemistry, 2025).

Experiments:
[1] = test system: caspase 3/7 in SK-N-BE(2)-C; assay: Caspase-Glo 3/7 assay; type: cell-based, human; settings: 48 h, 1 μM tariquidar
Method: (§1) Neuroblastoma cells were seeded in 384-well plates at different densities ranging from 1200 to 5000 cells/well and allowed to adhere overnight. Compound treatment was performed using the D300e Digital Dispenser (Tecan) in duplicate. At the 48 h time point, a Caspase-Glo 3/7 Assay (Promega, #G8090) was performed following the manufacturer’s protocol, but adapted to add a 1:2 ratio of Caspase-Glo 3/7 reagent volume to sample volume. The readout was performed using the GloMax Discover Microplate Reader (Promega). Caspase 3/7 luminescence values were normalized to that of the DMSO negative control, and mean relative caspase 3/7 luminescence values were calculated from 3 individual experiments.

caspase 3/7 in NGP = assay: Caspase-Glo 3/7 assay; type: cell-based, human; settings: 48 h, 1 μM tariquidar
Method: as §1

NanoLuc-AURKA = biological target: T1, NanoLuc-AURKA (Homo sapiens, UniProt O14965); assay: NanoBRET target engagement, permeabilized mode; type: binding; settings: permeabilized HEK293T; read-out: NanoBRET IC50, tracer displacement from NanoLuc-AURKA
T1 construct: Plasmids encoding full-length wild-type AURKA fused to Nano-Luc; host or cells: HEK293T
T1 sequence (O14965 1-403): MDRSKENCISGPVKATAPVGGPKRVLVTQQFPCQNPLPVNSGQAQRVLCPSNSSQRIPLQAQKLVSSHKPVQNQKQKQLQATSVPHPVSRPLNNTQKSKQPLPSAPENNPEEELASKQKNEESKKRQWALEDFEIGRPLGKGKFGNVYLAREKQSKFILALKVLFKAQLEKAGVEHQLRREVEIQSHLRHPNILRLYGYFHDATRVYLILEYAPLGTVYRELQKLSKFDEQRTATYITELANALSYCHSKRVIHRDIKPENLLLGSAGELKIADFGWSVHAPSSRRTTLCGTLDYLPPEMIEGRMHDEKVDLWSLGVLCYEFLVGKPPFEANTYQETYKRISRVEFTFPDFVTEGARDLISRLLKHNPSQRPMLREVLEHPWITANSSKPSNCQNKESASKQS
Method: The NanoBRET Target Engagement Assay (Promega) was performed according to the recommended instructions from the manufacturer. Plasmids encoding full-length wild-type AURKA fused to Nano-Luc via AURKA’s C-terminus (Promega, #NV1041) were transfected into HEK293T cells using FuGENE HD (Promega, #E2312). […] The plate was mixed at 900 rpm for 15 s, using an orbital shaker. For the permeabilized-mode, digitonin (Sigma-Aldrich, #D141) was additionally added at a final concentration of 50 μg/mL. Test compounds were subsequently administered in duplicate using the D300e digital dispenser (Tecan), followed by incubation for 2 h (37 °C, 5% CO2). To measure BRET, nanoglo substrate and extracellular nanoluc inhibitor (only in live-mode) (Promega #N2540) were added, and luminescence was measured using the GloMax Discover Microplate Reader (Promega) with a luminescence filter pair of 450 nm (BP filter, donor) and 600 nm (LP filter, acceptor). The NanoBRET ratio was calculated using the following formula: BRET ratio = 1000*[(acceptor signal/donor signal)with tracer – (acceptor signal/donor signal)no tracer]. Relative BRET ratios (%) were generated by normalizing to the negative DMSO control. The experiment was performed once with 2 replicate samples.
All dose–response curves were computed on GraphPad Prism using the Variable Slope (four parameters) equation. Absolute half-maximal degradation (DC50), growth inhibitory (GI50) and enzymatic inhibitory (IC50) concentrations, as well as inhibition constants (Ki) were derived from dose–response curves via interpolation. Statistical tests were performed on GraphPad Prism and detailed in the figure legends. Unless otherwise stated, “n” in the figure legends indicates the number of independent experiments conducted at different times.

403 nonmutant kinases = assay: KINOMEscan scanMAX kinome-wide binding scan, interactions mapped; settings: for Interactions mapped: total = 403 non-mutant kinases, threshold < 35% of control
Method: The kinome-wide binding assay was performed by Eurofins Discovery using the scanMAX screening platform. More information can be found on the Eurofins Discovery Web site.

Structure (SMILES) | induction of apoptosis (caspase 3/7) upon cotreatment with tariquidar (in words) [1] | induction of apoptosis (caspase 3/7) upon cotreatment with tariquidar (in words) (caspase 3/7 in NGP) | IC50 (NanoLuc-AURKA) [µM] | kinases significantly engaged (in words) (403 nonmutant kinases; 100 nM) | Interactions mapped (403 nonmutant kinases; 100nM) | nonmutant kinases bound in addition to AURKA, out of 403 (403 nonmutant kinases; 1000 nM) | Interactions mapped (403 nonmutant kinases; 1000nM)
Cc1cc(Nc2ccc(F)c(CC3(C(=O)N4CCC(CN5CCN(c6ccc(N7CCC(=O)NC7=O)cn6)CC5)CC4)CCN(Cc4cccc(Cl)c4F)CC3)n2)n[nH]1 [SK4454] | significant increased induction of apoptosis | no difference | ~0.02 | – | – | – | –
Cc1cc(Nc2ccc(F)c(CC3(C(=O)N4CCC(F)(CN5CCN(c6ccc(N7CCC(=O)NC7=O)cn6)CC5)CC4)CCN(Cc4cccc(Cl)c4F)CC3)n2)n[nH]1 [SK5527] | significant increased induction of apoptosis | no difference | ~0.02 | only AURKA and TrKA | 2 | 9 | 10
